From ChEMBL document CHEMBL5291721, “A preclinical secondary pharmacology resource illuminates target-adverse drug reaction associations of marketed drugs” (Nat Commun, 2023)

Key:
[1] = target: Sodium-dependent noradrenaline transporter (Homo sapiens, UniProt P23975)
[2] = target: T1, Cholecystokinin receptor type A (Homo sapiens, UniProt P32238)
T1 sequence (P32238 whole entry): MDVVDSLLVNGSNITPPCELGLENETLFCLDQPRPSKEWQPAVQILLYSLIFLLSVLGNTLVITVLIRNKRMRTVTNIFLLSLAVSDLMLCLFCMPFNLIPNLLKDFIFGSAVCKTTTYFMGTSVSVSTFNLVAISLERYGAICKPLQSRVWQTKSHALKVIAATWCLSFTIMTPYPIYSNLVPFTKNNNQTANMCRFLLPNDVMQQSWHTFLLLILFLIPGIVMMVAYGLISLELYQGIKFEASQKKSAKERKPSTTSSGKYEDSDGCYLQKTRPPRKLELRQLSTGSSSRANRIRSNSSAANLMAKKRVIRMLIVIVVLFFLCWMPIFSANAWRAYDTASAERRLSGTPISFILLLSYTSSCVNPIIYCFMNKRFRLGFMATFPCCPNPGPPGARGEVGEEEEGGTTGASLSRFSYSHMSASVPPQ

[3] = target: Sodium-dependent dopamine transporter (Homo sapiens, UniProt Q01959)
Motilin receptor = Motilin receptor (Homo sapiens, UniProt O43193)
[4] = target: Growth hormone secretagogue receptor type 1 (Homo sapiens, UniProt Q92847)
Endothelin-1 receptor = target: T2, Endothelin-1 receptor (Homo sapiens, UniProt P25101)
T2 sequence (P25101 whole entry): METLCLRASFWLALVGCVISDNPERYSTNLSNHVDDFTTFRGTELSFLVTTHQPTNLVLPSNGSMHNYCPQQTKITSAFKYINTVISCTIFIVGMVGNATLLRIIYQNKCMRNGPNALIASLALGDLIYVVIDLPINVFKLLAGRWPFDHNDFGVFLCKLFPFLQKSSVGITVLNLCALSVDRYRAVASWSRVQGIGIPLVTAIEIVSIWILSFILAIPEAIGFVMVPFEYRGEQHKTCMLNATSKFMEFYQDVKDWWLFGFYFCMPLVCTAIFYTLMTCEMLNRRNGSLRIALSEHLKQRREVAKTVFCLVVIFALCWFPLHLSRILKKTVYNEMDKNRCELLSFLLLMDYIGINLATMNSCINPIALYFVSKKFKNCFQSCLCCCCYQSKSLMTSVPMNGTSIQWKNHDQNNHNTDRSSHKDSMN

[5] = target: T3, Gastrin/cholecystokinin type B receptor (Homo sapiens, UniProt P32239)
T3 sequence (P32239 whole entry): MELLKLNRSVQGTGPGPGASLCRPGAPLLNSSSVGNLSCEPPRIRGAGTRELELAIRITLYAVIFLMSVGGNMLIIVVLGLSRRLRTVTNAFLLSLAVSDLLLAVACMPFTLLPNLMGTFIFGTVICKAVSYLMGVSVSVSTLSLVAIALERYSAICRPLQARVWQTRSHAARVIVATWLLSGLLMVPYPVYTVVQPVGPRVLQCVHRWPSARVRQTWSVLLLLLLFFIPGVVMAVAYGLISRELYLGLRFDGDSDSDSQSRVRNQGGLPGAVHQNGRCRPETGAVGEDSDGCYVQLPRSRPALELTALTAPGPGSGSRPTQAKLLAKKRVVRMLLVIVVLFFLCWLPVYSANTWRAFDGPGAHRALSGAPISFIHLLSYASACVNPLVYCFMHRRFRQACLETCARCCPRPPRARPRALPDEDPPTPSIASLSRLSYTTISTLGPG

Vasopressin V1a receptor = Vasopressin V1a receptor (Homo sapiens, UniProt P37288)
[6] = target: T4, Muscarinic acetylcholine receptor M2 (Homo sapiens, UniProt P08172); type: functional, cell-based
T4 sequence (P08172 whole entry): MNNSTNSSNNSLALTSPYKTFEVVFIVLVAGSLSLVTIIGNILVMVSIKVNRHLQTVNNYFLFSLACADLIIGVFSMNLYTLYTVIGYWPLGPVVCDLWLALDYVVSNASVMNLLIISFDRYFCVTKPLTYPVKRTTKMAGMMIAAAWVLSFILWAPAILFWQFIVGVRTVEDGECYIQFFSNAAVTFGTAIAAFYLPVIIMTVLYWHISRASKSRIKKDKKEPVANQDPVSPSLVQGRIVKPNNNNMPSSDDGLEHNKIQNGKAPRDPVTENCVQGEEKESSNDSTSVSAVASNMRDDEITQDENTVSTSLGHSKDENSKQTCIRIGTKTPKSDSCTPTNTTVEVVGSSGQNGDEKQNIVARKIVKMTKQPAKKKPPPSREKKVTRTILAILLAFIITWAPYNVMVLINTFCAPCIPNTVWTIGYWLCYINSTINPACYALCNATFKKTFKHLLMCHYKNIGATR

D(3) dopamine receptor = D(3) dopamine receptor (Homo sapiens, UniProt P35462)
[7] = target: cGMP-inhibited 3',5'-cyclic phosphodiesterase 3A (Homo sapiens, UniProt Q14432); type: functional
[8] = target: T5, Alpha-2B adrenergic receptor (Homo sapiens, UniProt P18089)
T5 sequence (P18089 whole entry): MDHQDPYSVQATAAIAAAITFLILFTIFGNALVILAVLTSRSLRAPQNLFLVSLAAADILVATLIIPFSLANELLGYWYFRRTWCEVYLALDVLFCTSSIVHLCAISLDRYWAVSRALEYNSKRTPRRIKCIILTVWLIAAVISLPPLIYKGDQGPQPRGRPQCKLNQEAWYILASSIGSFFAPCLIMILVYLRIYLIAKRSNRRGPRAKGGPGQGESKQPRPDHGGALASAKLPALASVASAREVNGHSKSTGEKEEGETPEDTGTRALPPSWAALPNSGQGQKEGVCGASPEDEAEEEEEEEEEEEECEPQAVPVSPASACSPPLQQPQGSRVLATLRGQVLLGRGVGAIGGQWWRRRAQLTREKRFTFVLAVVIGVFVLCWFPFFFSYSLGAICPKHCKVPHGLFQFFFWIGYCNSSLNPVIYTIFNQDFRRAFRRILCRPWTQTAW

[9] = target: 5-hydroxytryptamine receptor 2B (Homo sapiens, UniProt P41595); type: functional, cell-based
Note: assay procedure not described here.

Chain of Motilin receptor (O43193 whole entry): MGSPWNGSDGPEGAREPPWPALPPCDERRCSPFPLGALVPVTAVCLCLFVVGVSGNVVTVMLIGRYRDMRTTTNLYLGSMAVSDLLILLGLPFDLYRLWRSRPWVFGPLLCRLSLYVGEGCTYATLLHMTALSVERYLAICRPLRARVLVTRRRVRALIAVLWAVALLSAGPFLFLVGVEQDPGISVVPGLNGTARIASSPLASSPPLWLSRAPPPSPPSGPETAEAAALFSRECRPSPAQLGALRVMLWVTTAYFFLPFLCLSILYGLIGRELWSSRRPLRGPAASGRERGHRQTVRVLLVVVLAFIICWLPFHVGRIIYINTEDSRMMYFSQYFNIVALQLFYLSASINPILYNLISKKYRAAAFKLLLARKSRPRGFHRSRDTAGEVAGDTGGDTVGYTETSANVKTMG
Chain of cGMP-inhibited 3',5'-cyclic phosphodiesterase 3A (Q14432 whole entry): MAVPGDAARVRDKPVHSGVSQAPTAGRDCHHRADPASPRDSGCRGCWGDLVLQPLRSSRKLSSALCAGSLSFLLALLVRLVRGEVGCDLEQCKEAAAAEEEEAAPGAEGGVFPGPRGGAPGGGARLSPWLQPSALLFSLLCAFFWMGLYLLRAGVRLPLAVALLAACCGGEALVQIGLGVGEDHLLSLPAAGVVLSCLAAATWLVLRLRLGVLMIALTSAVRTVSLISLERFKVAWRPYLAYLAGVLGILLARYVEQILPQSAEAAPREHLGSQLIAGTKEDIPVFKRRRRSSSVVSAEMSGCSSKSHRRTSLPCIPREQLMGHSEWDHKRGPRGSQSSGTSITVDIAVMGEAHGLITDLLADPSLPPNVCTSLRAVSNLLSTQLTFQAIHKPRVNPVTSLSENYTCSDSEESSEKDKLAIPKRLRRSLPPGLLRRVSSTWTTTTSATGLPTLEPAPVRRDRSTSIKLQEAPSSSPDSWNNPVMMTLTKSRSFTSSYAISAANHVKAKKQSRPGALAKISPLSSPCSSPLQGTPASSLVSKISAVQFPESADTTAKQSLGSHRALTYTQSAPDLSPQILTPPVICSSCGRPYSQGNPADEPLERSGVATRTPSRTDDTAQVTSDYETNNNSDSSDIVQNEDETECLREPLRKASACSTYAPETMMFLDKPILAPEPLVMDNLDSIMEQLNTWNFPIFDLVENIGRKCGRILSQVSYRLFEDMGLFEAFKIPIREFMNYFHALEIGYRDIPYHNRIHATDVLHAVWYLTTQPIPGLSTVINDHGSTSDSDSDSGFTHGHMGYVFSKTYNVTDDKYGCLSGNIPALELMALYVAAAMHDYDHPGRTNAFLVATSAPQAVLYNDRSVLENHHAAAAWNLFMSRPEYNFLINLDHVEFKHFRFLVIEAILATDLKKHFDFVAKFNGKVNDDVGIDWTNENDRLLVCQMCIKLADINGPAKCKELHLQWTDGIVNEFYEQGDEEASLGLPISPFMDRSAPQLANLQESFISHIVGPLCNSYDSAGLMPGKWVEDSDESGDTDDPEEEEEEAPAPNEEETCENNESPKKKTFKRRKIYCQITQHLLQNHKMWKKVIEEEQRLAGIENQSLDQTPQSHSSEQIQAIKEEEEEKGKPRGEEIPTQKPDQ
Chain of D(3) dopamine receptor (P35462 whole entry): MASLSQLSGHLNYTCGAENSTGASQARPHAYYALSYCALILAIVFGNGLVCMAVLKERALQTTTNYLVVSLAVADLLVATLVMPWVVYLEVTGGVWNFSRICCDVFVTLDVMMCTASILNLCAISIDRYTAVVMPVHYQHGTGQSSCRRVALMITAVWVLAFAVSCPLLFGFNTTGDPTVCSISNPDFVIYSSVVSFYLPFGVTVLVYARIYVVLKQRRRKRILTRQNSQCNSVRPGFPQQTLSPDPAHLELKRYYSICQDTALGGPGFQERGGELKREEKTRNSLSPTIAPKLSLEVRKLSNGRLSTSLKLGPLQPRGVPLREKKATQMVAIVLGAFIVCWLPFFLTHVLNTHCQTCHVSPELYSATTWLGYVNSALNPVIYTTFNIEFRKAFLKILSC
Chain of Sodium-dependent noradrenaline transporter (P23975 whole entry): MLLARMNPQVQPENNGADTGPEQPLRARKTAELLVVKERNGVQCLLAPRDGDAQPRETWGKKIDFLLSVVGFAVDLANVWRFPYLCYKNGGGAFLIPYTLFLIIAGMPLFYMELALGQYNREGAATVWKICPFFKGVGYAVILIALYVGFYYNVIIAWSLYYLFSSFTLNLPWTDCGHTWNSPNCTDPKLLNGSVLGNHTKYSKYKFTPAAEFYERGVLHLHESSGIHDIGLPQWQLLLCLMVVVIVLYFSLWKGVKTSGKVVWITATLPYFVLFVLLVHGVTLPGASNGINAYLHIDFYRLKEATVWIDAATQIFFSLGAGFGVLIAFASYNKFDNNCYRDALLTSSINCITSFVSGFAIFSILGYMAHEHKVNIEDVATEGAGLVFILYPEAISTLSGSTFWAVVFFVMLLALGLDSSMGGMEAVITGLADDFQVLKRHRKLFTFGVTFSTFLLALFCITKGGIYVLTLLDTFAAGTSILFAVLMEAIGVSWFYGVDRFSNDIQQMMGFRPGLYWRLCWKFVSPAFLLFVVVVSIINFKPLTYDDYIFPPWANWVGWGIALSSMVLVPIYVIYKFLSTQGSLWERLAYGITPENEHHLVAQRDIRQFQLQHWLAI
Chain of 5-hydroxytryptamine receptor 2B (P41595 whole entry): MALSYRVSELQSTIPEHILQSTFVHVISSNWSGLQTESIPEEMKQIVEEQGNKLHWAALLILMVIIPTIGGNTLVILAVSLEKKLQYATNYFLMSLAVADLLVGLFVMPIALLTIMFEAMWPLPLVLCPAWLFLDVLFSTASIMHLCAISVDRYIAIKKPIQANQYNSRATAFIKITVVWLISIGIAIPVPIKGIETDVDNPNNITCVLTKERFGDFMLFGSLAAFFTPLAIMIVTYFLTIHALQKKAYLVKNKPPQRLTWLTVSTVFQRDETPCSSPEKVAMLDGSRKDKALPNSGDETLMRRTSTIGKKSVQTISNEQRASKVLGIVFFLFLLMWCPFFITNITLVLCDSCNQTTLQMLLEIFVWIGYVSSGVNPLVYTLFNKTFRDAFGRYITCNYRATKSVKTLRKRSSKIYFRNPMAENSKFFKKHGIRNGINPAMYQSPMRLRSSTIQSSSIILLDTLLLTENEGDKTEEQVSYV
Chain of Vasopressin V1a receptor (P37288 whole entry): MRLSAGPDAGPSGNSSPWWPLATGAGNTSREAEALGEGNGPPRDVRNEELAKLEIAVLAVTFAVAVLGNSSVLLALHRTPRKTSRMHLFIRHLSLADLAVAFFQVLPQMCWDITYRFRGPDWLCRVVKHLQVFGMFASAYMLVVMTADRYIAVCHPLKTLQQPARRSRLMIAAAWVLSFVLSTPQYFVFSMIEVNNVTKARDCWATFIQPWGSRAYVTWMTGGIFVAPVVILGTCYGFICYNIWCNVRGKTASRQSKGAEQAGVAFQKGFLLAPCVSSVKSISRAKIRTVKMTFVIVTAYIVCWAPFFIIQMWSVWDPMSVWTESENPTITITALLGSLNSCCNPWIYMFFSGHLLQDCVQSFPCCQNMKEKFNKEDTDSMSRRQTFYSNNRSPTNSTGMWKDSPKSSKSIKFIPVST
Chain of Growth hormone secretagogue receptor type 1 (Q92847 whole entry): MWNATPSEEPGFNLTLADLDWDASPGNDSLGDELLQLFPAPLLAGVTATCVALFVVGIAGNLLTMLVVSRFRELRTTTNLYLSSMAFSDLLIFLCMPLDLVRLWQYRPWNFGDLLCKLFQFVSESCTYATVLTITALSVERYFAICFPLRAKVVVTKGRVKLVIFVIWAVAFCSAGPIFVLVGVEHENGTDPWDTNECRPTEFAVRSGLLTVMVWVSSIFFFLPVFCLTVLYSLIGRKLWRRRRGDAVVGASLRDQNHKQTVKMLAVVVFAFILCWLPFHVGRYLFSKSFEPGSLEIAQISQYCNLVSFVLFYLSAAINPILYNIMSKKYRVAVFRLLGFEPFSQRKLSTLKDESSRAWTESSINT
Chain of Sodium-dependent dopamine transporter (Q01959 whole entry): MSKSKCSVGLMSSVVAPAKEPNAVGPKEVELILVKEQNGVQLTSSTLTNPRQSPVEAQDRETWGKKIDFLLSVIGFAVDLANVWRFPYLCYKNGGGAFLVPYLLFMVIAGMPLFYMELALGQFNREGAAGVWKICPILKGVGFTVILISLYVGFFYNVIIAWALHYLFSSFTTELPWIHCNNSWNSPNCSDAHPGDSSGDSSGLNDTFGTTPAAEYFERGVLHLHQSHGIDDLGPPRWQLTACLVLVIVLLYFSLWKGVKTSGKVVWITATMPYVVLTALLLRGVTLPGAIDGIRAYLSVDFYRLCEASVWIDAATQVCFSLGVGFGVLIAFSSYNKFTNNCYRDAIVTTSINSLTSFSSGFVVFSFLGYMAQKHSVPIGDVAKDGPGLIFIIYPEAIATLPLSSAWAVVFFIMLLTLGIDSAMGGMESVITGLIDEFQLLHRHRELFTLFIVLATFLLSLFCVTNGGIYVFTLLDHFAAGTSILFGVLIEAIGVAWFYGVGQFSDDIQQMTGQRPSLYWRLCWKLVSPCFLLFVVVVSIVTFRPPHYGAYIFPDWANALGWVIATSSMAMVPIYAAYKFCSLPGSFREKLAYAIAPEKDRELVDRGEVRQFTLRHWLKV

Row | SMILES | AC50 [1] [µM] | AC50 [2] [µM] | AC50 [3] [µM] | AC50 (Motilin receptor) [µM] | AC50 [4] [µM] | AC50 (Endothelin-1 receptor) [µM] | AC50 [5] [µM] | AC50 (Vasopressin V1a receptor) [µM] | AC50 [6] [µM] | AC50 (D(3) dopamine receptor) [µM] | AC50 [7] [µM] | AC50 [8] [µM] | AC50 [9] [µM]
1 | CCC(CC)(CC(=O)Nc1cccc(/C=C/c2nc(C3CCC3)cs2)c1)C(=O)O | > 30 | > 30 | > 30 | > 30 | > 30 | > 30 | > 30 | > 30 |  |  |  |  | 
2 | CCCCCNC(=N)N/N=C/c1c[nH]c2ccc(OC)cc12 [TEGASEROD] | 0.495 | > 30 | 6.78 | 16.3 | 11.4 | > 30 | > 30 | 21.3 | > 30 | 3.5 | > 30 | 3.37 | 0.343
3 | O=[N+]([O-])O[C@@H]1CO[C@H]2[C@@H]1OC[C@@H]2O [ISOSORBIDE MONONITRATE] | > 10 | > 30 | > 10 | > 10 | > 30 | > 30 | > 30 | > 10 | > 10 | > 10 | > 30 | > 10 | > 10
4 | CN(C)CC/C=C1\c2ccccc2CSc2ccccc21 [DOTHIEPIN] | 0.8 | > 30 | 20 | > 30 | > 30 | > 30 | > 30 | > 30 | > 30 | 3 | > 30 | 1.3 | 3.6
5 | CC[C@@H](C(N)=O)N1CCCC1=O | > 30 | > 30 | > 30 | > 30 | > 30 | > 30 | > 30 | > 30 | > 30 | > 30 | > 30 | > 30 | > 30
6 | Cc1oc(=O)oc1CN1CCN(c2cc3c(cc2F)c(=O)c(C(=O)O)c2n3C(C)S2)CC1 (centres undefined) [PRULIFLOXACIN] |  |  |  |  |  |  |  |  | > 30 | > 30 | > 30 | > 30 | > 30
7 | CC(=O)c1ccc2c(c1)N(CCCN(C)C)c1ccccc1S2 [ACEPROMAZINE] |  |  |  |  |  |  |  |  |  | 0.013 |  |  | 
8 | COc1cc2nc(N3CCN(C(=O)c4ccco4)CC3)nc(N)c2cc1OC [PRAZOSIN] | > 10 | > 30 | > 10 | > 10 | > 30 | > 30 | > 30 | > 10 | > 10 | > 30 | > 30 |  | 26
9 | NC1CCN(c2c(F)cc3c(=O)c(C(=O)O)cn(C4CC4)c3c2Cl)C1 (centres undefined) [CLINAFLOXACIN] |  |  |  |  |  | > 300 |  |  |  |  |  |  | 
